# Organism: Rattus norvegicus
# Test: Open TG-GATES - Regimen: Daily Repeat
# Type: toxicity, organism-based, Sprague-Dawley
# Parameters: regimen Daily Repeat, gender Male, age 6 weeks
# Details: in vivo, po, 75 mg/kg, route gavage, dose level Middle; for APTT / Bas / Eos / Fbg / Hb / Ht / Lym / MCH / MCHC / MCV / Mono / Neu / PT / Plat / RBC / Ret / WBC: tissue Blood; for KIDNEY_L / KIDNEY_R / KIDNEY_TOTAL: tissue Kidney; for LIVER: tissue Liver; for ALP / ALT / AST / BUN / CRE / DBIL / GLC / K / Na / PL / RALB / TBIL / TC / TG / TP / gamma-GTP: tissue Plasma
smiles,measurement,setting,value
CN1C(=O)CN=C(c2ccccc2)c2cc(Cl)ccc21 [DIAZEPAM],TERMINAL_BW,"72 h, time 3 day",244.2 g
same,APTT,"72 h, time 3 day",16.3 s
same,Bas,"72 h, time 3 day",0%
same,Eos,"72 h, time 3 day",1.2%
same,Fbg,"72 h, time 3 day",235.6 mg/dL
same,Hb,"72 h, time 3 day",13.7 g/dL
same,Ht,"72 h, time 3 day",41.3%
same,Lym,"72 h, time 3 day",77.4%
same,MCH,"72 h, time 3 day",21.3 pg
same,MCHC,"72 h, time 3 day",33.3%
same,MCV,"72 h, time 3 day",64.1 fL
same,Mono,"72 h, time 3 day",6%
same,Neu,"72 h, time 3 day",15.8%
same,PT,"72 h, time 3 day",11.6 s
same,Plat,"72 h, time 3 day",112.9 x10_4/uL
same,RBC,"72 h, time 3 day",644 x10_4/ul
same,Ret,"72 h, time 3 day",6.3%
same,WBC,"72 h, time 3 day",129.7 x10_2/uL
same,KIDNEY_L,"72 h, time 3 day",1.1 g
same,KIDNEY_R,"72 h, time 3 day",1 g
same,KIDNEY_TOTAL,"72 h, time 3 day",2.1 g
same,LIVER,"72 h, time 3 day",12.5 g
same,ALP,"72 h, time 3 day",782.4 IU/L
same,ALT,"72 h, time 3 day",33.2 IU/L
same,AST,"72 h, time 3 day",62.6 IU/L
same,BUN,"72 h, time 3 day",19 mg/dL
same,CRE,"72 h, time 3 day",0.6 mg/dL
same,DBIL,"72 h, time 3 day",0.008 mg/dL
same,GLC,"72 h, time 3 day",194.2 mg/dL
same,K,"72 h, time 3 day",5 meq/L
same,Na,"72 h, time 3 day",138.7 meq/L
same,PL,"72 h, time 3 day",164.2 mg/dL
same,RALB,"72 h, time 3 day",4.1 g/dL
same,TBIL,"72 h, time 3 day",0.4 mg/dL
same,TC,"72 h, time 3 day",90.8 mg/dL
same,TG,"72 h, time 3 day",99.2 mg/dL
same,TP,"72 h, time 3 day",6 g/dL
same,gamma-GTP,"72 h, time 3 day",0.8 IU/L
same,TERMINAL_BW,"[…], time 7 day",272.1 g
same,TERMINAL_BW,"[…], time 14 day",328 g
same,TERMINAL_BW,"[…], time 28 day",403 g
same,APTT,"[…], time 7 day",16.8 s
same,Bas,"[…], time 7 day",0%
same,Eos,"[…], time 7 day",1%
same,Fbg,"[…], time 7 day",230.6 mg/dL
same,Hb,"[…], time 7 day",14.3 g/dL
same,Ht,"[…], time 7 day",43.5%
same,Lym,"[…], time 7 day",77.8%
same,MCH,"[…], time 7 day",21 pg
same,MCHC,"[…], time 7 day",32.9%
same,MCV,"[…], time 7 day",63.8 fL
same,Mono,"[…], time 7 day",5.8%
same,Neu,"[…], time 7 day",15.4%
same,PT,"[…], time 7 day",11.4 s
same,Plat,"[…], time 7 day",107.7 x10_4/uL
same,RBC,"[…], time 7 day",682.8 x10_4/ul
same,Ret,"[…], time 7 day",5.5%
same,WBC,"[…], time 7 day",100.7 x10_2/uL
same,APTT,"[…], time 14 day",16.7 s
same,Bas,"[…], time 14 day",0%
same,Eos,"[…], time 14 day",0.6%
same,Fbg,"[…], time 14 day",228.6 mg/dL
same,Hb,"[…], time 14 day",14.6 g/dL
same,Ht,"[…], time 14 day",43.7%
same,Lym,"[…], time 14 day",82.6%
same,MCH,"[…], time 14 day",21.1 pg
same,MCHC,"[…], time 14 day",33.4%
same,MCV,"[…], time 14 day",63 fL
same,Mono,"[…], time 14 day",3.8%
same,Neu,"[…], time 14 day",12.8%
same,PT,"[…], time 14 day",11.8 s
same,Plat,"[…], time 14 day",111.6 x10_4/uL
same,RBC,"[…], time 14 day",694.4 x10_4/ul
same,Ret,"[…], time 14 day",4.9%
same,WBC,"[…], time 14 day",142.4 x10_2/uL
same,APTT,"[…], time 28 day",17.8 s
same,Bas,"[…], time 28 day",0%
same,Eos,"[…], time 28 day",1.2%
same,Fbg,"[…], time 28 day",236.6 mg/dL
same,Hb,"[…], time 28 day",15.2 g/dL
same,Ht,"[…], time 28 day",45.7%
same,Lym,"[…], time 28 day",80.4%
same,MCH,"[…], time 28 day",19 pg
same,MCHC,"[…], time 28 day",33.3%
same,MCV,"[…], time 28 day",57 fL
same,Mono,"[…], time 28 day",3.6%
same,Neu,"[…], time 28 day",14.4%
same,PT,"[…], time 28 day",12 s
same,Plat,"[…], time 28 day",106.3 x10_4/uL
same,RBC,"[…], time 28 day",802.8 x10_4/ul
same,Ret,"[…], time 28 day",2.6%
same,WBC,"[…], time 28 day",121 x10_2/uL
same,KIDNEY_L,"[…], time 7 day",1.2 g
same,KIDNEY_R,"[…], time 7 day",1.2 g
same,KIDNEY_TOTAL,"[…], time 7 day",2.3 g
same,KIDNEY_L,"[…], time 14 day",1.3 g
same,KIDNEY_R,"[…], time 14 day",1.4 g
same,KIDNEY_TOTAL,"[…], time 14 day",2.7 g
same,KIDNEY_L,"[…], time 28 day",1.4 g
same,KIDNEY_R,"[…], time 28 day",1.5 g
same,KIDNEY_TOTAL,"[…], time 28 day",2.9 g
same,LIVER,"[…], time 7 day",13.9 g
same,LIVER,"[…], time 14 day",15.5 g
same,LIVER,"[…], time 28 day",17.7 g
same,ALP,"[…], time 7 day",755 IU/L
same,ALT,"[…], time 7 day",36.8 IU/L
same,AST,"[…], time 7 day",57.8 IU/L
same,BUN,"[…], time 7 day",16.4 mg/dL
same,CRE,"[…], time 7 day",0.6 mg/dL
same,DBIL,"[…], time 7 day",0.01 mg/dL
same,GLC,"[…], time 7 day",199 mg/dL
same,K,"[…], time 7 day",4.5 meq/L
same,Na,"[…], time 7 day",138.9 meq/L
same,PL,"[…], time 7 day",155.2 mg/dL
same,RALB,"[…], time 7 day",4.2 g/dL
same,TBIL,"[…], time 7 day",0.3 mg/dL
same,TC,"[…], time 7 day",81.8 mg/dL
same,TG,"[…], time 7 day",86.4 mg/dL
same,TP,"[…], time 7 day",6.2 g/dL
same,gamma-GTP,"[…], time 7 day",1.2 IU/L
same,ALP,"[…], time 14 day",627.6 IU/L
same,ALT,"[…], time 14 day",32.8 IU/L
same,AST,"[…], time 14 day",59.2 IU/L
same,BUN,"[…], time 14 day",16 mg/dL
same,CRE,"[…], time 14 day",0.6 mg/dL
same,DBIL,"[…], time 14 day",0.006 mg/dL
same,GLC,"[…], time 14 day",194.8 mg/dL
same,K,"[…], time 14 day",4.4 meq/L
same,Na,"[…], time 14 day",141.1 meq/L
same,PL,"[…], time 14 day",144.8 mg/dL
same,RALB,"[…], time 14 day",4 g/dL
same,TBIL,"[…], time 14 day",0.4 mg/dL
same,TC,"[…], time 14 day",74.6 mg/dL
same,TG,"[…], time 14 day",87.4 mg/dL
same,TP,"[…], time 14 day",6.1 g/dL
same,gamma-GTP,"[…], time 14 day",1 IU/L
same,ALP,"[…], time 28 day",410.4 IU/L
same,ALT,"[…], time 28 day",32.2 IU/L
same,AST,"[…], time 28 day",56.8 IU/L
same,BUN,"[…], time 28 day",20.2 mg/dL
same,CRE,"[…], time 28 day",0.6 mg/dL
same,DBIL,"[…], time 28 day",0.012 mg/dL
same,GLC,"[…], time 28 day",192.4 mg/dL
same,K,"[…], time 28 day",4.2 meq/L
same,Na,"[…], time 28 day",139.9 meq/L
same,PL,"[…], time 28 day",151.4 mg/dL
same,RALB,"[…], time 28 day",4.1 g/dL
same,TBIL,"[…], time 28 day",0.3 mg/dL
same,TC,"[…], time 28 day",74 mg/dL
same,TG,"[…], time 28 day",136 mg/dL
same,TP,"[…], time 28 day",6.7 g/dL
same,gamma-GTP,"[…], time 28 day",0.4 IU/L

# Source: ChEMBL document CHEMBL3885861, “Open TG-GATES”
